In PubChem BioAssay AID328 (DTP/NCI, 2004):
“And” between values parts separate entries of the source, which are not always exact repeats. Equal values may be shown once. Inconclusive results and toxic doses are left out.

Tested on: BDF1 mice, P388 leukemia ip, median survival T/C
Experiment: NCI In Vivo Anticancer Drug Screen. Data for tumor model P388 Leukemia (intraperitoneal) in B6D2F1 (BDF1) mice
Conditions: endpoint: median survival time, higher = longer survival
In short: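 Mice carrying the transplantable tumour receive compound or vehicle. Survival is followed in each arm, and the treated measure is divided by the vehicle measure.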

[1] = dose: 10.0 mg/kg/injection, schedule: Q01DX009 (ip), vehicle: saline with Tween-80
[2] = dose: 20.0 mg/kg/injection, schedule: Q01DX009 (ip), vehicle: saline with Tween-80
[3] = dose: 40.0 mg/kg/injection, schedule: Q01DX009 (ip), vehicle: saline with Tween-80
[4] = dose: 100.0 mg/kg/injection, schedule: Q04DX003 (ip), vehicle: saline
[5] = dose: 200.0 mg/kg/injection, schedule: Q04DX003 (ip), vehicle: saline
[6] = dose: 400.0 mg/kg/injection, schedule: Q04DX003 (ip), vehicle: saline
[7] = dose: 100.0 mg/kg/injection, schedule: Q01DX009 (ip), vehicle: Klucel (hydroxypropylcellulose) (HPC)
[8] = dose: 100.0 mg/kg/injection, schedule: Q04DX003 (ip), vehicle: Klucel (hydroxypropylcellulose) (HPC)
[9] = dose: 200.0 mg/kg/injection, schedule: Q01DX009 (ip), vehicle: Klucel (hydroxypropylcellulose) (HPC)
[10] = dose: 200.0 mg/kg/injection, schedule: Q04DX003 (ip), vehicle: Klucel (hydroxypropylcellulose) (HPC)
[11] = dose: 100.0 mg/kg/injection, schedule: Q01DX009 (ip), vehicle: saline with Tween-80
[12] = dose: 13.0 mg/kg/injection, schedule: Q01DX009 (ip), vehicle: saline with Tween-80

SMILES: Nc1ncnc2c1ncn2C1OC(CO)C(O)C1O (configuration not stated)
- T/C (dose: 1.56 mg/kg/injection, schedule: Q#A X018 (ip), vehicle: saline with Tween-80): 113 % of control
- T/C (dose: 3.13 mg/kg/injection, schedule: Q#A X018 (ip), vehicle: saline with Tween-80): 100 % of control
- T/C (dose: 6.25 mg/kg/injection, schedule: Q#A X018 (ip), vehicle: saline with Tween-80): 100 % of control
- T/C [1]: 105 % of control
- T/C (dose: 12.5 mg/kg/injection, schedule: Q#A X018 (ip), vehicle: saline with Tween-80): 109 % of control
- T/C (dose: 14.0 mg/kg/injection, schedule: Q01DX009 (ip), vehicle: saline): 120 % of control
- T/C [2]: 91 % of control and 100 % of control
- T/C (dose: 25.0 mg/kg/injection, schedule: Q04DX003 (ip), vehicle: saline): 109 % of control
- T/C [3]: 114 % of control and 122 % of control
- T/C (dose: 50.0 mg/kg/injection, schedule: Q04DX003 (ip), vehicle: saline): 113 % of control
- T/C (dose: 78.0 mg/kg/injection, schedule: Q01DX009 (ip), vehicle: saline with Tween-80): 178 % of control
- T/C (dose: 78.6 mg/kg/injection, schedule: Q01DX005 (ip), vehicle: water): 108 % of control
- T/C (dose: 78.6 mg/kg/injection, schedule: Q01DX009 (ip), vehicle: water): 102 % of control
- T/C [4]: 109 % of control
- T/C (dose: 110.0 mg/kg/injection, schedule: Q03HX024 (ip), vehicle: saline with Tween-80): 184 % of control
- T/C (dose: 118.0 mg/kg/injection, schedule: Q01DX005 (ip), vehicle: water): 114 % of control
- T/C (dose: 118.0 mg/kg/injection, schedule: Q01DX009 (ip), vehicle: saline with Tween-80): 165 % of control
- T/C (dose: 118.0 mg/kg/injection, schedule: Q01DX009 (ip), vehicle: water): 105 % of control
- T/C (dose: 160.0 mg/kg/injection, schedule: Q01DX009 (ip), vehicle: saline with Tween-80): 151 % of control and 185 % of control
- T/C (dose: 160.0 mg/kg/injection, schedule: Q03HX024 (ip), vehicle: saline with Tween-80): 206 % of control
- T/C (dose: 177.0 mg/kg/injection, schedule: Q01DX005 (ip), vehicle: water): 111 % of control
- T/C (dose: 177.0 mg/kg/injection, schedule: Q01DX009 (ip), vehicle: saline with Tween-80): 156 % of control and 169 % of control
- T/C (dose: 177.0 mg/kg/injection, schedule: Q01DX009 (ip), vehicle: water): 112 % of control
- T/C (dose: 240.0 mg/kg/injection, schedule: Q03HX024 (ip), vehicle: saline with Tween-80): 228 % of control
- T/C (dose: 266.0 mg/kg/injection, schedule: Q01DX005 (ip), vehicle: water): 117 % of control
- T/C (dose: 266.0 mg/kg/injection, schedule: Q01DX009 (ip), vehicle: saline with Tween-80): 156 % of control and 166 % of control
- T/C (dose: 266.0 mg/kg/injection, schedule: Q01DX009 (ip), vehicle: water): 117 % of control
- T/C (dose: 320.0 mg/kg/injection, schedule: Q01DX009 (ip), vehicle: saline with Tween-80): 185 % of control
- T/C (dose: 400.0 mg/kg/injection, schedule: Q01DX005 (ip), vehicle: water): 117 % of control
- T/C (dose: 400.0 mg/kg/injection, schedule: Q01DX009 (ip), vehicle: water): 114 % of control
- T/C (dose: 900.0 mg/kg/injection, schedule: Q01DX009 (ip), vehicle: saline with Tween-80): 155 % of control and 156 % of control

SMILES: O=S1(=O)CC(Cl)C(Cl)C1 (configuration not stated)
- T/C (dose: 3.12 mg/kg/injection, schedule: Q01DX009 (ip), vehicle: saline): 90 % of control and 95 % of control
- T/C (dose: 4.5 mg/kg/injection, schedule: Q04DX003 (ip), vehicle: saline): 118 % of control
- T/C (dose: 6.25 mg/kg/injection, schedule: Q01DX009 (ip), vehicle: saline): 90 % of control
- T/C (dose: 9.0 mg/kg/injection, schedule: Q04DX003 (ip), vehicle: saline): 104 % of control
- T/C (dose: 12.5 mg/kg/injection, schedule: Q01DX009 (ip), vehicle: saline): 95 % of control
- T/C (dose: 18.0 mg/kg/injection, schedule: Q04DX003 (ip), vehicle: saline): 113 % of control
- T/C (dose: 26.0 mg/kg/injection, schedule: Q04DX003 (ip), vehicle: saline): 91 % of control

SMILES: O=Cc1c[nH]c(=O)[nH]c1=O
- T/C [4]: 91 % of control
- T/C [5]: 99 % of control
- T/C [6]: 88 % of control

SMILES: Cc1c(C)c(Cl)c(C)c(Cl)c1O
- T/C [7]: 109 % of control
- T/C [8]: 100 % of control
- T/C [9]: 100 % of control
- T/C [10]: 104 % of control
- T/C (dose: 400.0 mg/kg/injection, schedule: Q01DX009 (ip), vehicle: Klucel (hydroxypropylcellulose) (HPC)): 109 % of control
- T/C (dose: 400.0 mg/kg/injection, schedule: Q04DX003 (ip), vehicle: Klucel (hydroxypropylcellulose) (HPC)): 100 % of control

SMILES: CC(=O)Nc1cc(C)c2ccc(Cl)nc2n1
- T/C [4]: 97 % of control
- T/C [5]: 92 % of control
- T/C [6]: 91 % of control

SMILES: C(/C=C\C=C/Nc1ccccc1)=Nc1ccccc1
- T/C [1]: 100 % of control
- T/C [2]: 91 % of control
- T/C [3]: 89 % of control

SMILES: O=S(=O)(c1ccccc1)N1CCOC1=S
- T/C (dose: 100.0 mg/kg/injection, schedule: Q04DX003 (ip), vehicle: saline with Tween-80): 114 % of control
- T/C (dose: 200.0 mg/kg/injection, schedule: Q04DX003 (ip), vehicle: saline with Tween-80): 95 % of control
- T/C (dose: 400.0 mg/kg/injection, schedule: Q04DX003 (ip), vehicle: saline with Tween-80): 95 % of control

SMILES: O=C(NS(=O)(=O)c1ccc(Cl)cc1)c1cccc2ccccc12
- T/C (dose: 25.0 mg/kg/injection, schedule: Q01DX009 (ip), vehicle: Klucel (hydroxypropylcellulose) (HPC)): 95 % of control
- T/C (dose: 50.0 mg/kg/injection, schedule: Q01DX009 (ip), vehicle: Klucel (hydroxypropylcellulose) (HPC)): 90 % of control
- T/C [7]: 109 % of control

SMILES: CCOC(=O)C(Cc1ccc(OC)c(OC)c1)C(Cc1ccc(OC)c(OC)c1)C(=O)OCC (configuration not stated)
- T/C [11]: 90 % of control
- T/C (dose: 200.0 mg/kg/injection, schedule: Q01DX009 (ip), vehicle: saline with Tween-80): 104 % of control

SMILES: COc1cc(OC)c(C(=O)CCc2ccccc2)c(O)c1Cc1ccccc1O
- T/C (dose: 0.5 mg/kg/injection, schedule: Q01DX009 (ip), vehicle: saline): 106 % of control
- T/C (dose: 2.0 mg/kg/injection, schedule: Q01DX009 (ip), vehicle: saline): 113 % of control
- T/C (dose: 4.0 mg/kg/injection, schedule: Q01DX009 (ip), vehicle: saline with Tween-80): 120 % of control
- T/C (dose: 4.0 mg/kg/injection, schedule: Q01DX009 (ip), vehicle: saline): 103 % of control
- T/C (dose: 5.9 mg/kg/injection, schedule: Q01DX009 (ip), vehicle: saline with Tween-80): 103 % of control
- T/C [12]: 103 % of control

SMILES: C[N+]1(C)N=C([O-])N(c2ccc([N+](=O)[O-])cc2)C1=O
- T/C (dose: 50.0 mg/kg/injection, schedule: Q01DX009 (ip), vehicle: saline with Tween-80): 90 % of control
- T/C [11]: 99 % of control

SMILES: CNC(=N)c1ccc(NC(=N)c2ccc(NC(=N)c3ccc(NC(=N)c4ccc(C(=N)NC)cc4)cc3)cc2)cc1
- T/C (dose: 6.0 mg/kg/injection, schedule: Q01DX009 (ip), vehicle: saline with Tween-80): 120 % of control
- T/C [12]: 166 % of control and 175 % of control
- T/C (dose: 18.0 mg/kg/injection, schedule: Q04DX003 (ip), vehicle: saline with Tween-80): 100 % of control
- T/C [2]: 157 % of control and 165 % of control
- T/C (dose: 20.0 mg/kg/injection, schedule: Q04DX003 (ip), vehicle: saline with Tween-80): 109 % of control
- T/C (dose: 26.0 mg/kg/injection, schedule: Q04DX003 (ip), vehicle: saline with Tween-80): 116 % of control
- T/C (dose: 30.0 mg/kg/injection, schedule: Q01DX009 (ip), vehicle: saline with Tween-80): 214 % of control
- T/C (dose: 40.0 mg/kg/injection, schedule: Q04DX003 (ip), vehicle: saline with Tween-80): 154 % of control
- T/C (dose: 80.0 mg/kg/injection, schedule: Q04DX003 (ip), vehicle: saline with Tween-80): 90 % of control

SMILES: O=[N+]([O-])c1cc([N+](=O)[O-])c(Cl)cc1Cl
- T/C (dose: 3.13 mg/kg/injection, schedule: Q01DX009 (ip), vehicle: Klucel (hydroxypropylcellulose) (HPC)): 104 % of control
- T/C (dose: 6.25 mg/kg/injection, schedule: Q01DX009 (ip), vehicle: Klucel (hydroxypropylcellulose) (HPC)): 104 % of control
- T/C (dose: 12.5 mg/kg/injection, schedule: Q01DX009 (ip), vehicle: Klucel (hydroxypropylcellulose) (HPC)): 109 % of control
- T/C (dose: 50.0 mg/kg/injection, schedule: Q04DX003 (ip), vehicle: Klucel (hydroxypropylcellulose) (HPC)): 103 % of control
- T/C [10]: 92 % of control

SMILES: O=c1c2ccccc2cc2ccccn12
- T/C [7]: 109 % of control
- T/C [8]: 91 % of control
- T/C [9]: 109 % of control
- T/C [10]: 95 % of control
